Results: PMC3465515 (Nuclear medicine and biology, 2012)
Like-named read-outs stand apart in the source and are kept apart here.

What was measured:
[1] = molecular target: T1, human ERα (Homo sapiens, UniProt P03372); test: competitive radiometric binding assay with [3H]estradiol, ERα
T1 sequence (P03372 1-595): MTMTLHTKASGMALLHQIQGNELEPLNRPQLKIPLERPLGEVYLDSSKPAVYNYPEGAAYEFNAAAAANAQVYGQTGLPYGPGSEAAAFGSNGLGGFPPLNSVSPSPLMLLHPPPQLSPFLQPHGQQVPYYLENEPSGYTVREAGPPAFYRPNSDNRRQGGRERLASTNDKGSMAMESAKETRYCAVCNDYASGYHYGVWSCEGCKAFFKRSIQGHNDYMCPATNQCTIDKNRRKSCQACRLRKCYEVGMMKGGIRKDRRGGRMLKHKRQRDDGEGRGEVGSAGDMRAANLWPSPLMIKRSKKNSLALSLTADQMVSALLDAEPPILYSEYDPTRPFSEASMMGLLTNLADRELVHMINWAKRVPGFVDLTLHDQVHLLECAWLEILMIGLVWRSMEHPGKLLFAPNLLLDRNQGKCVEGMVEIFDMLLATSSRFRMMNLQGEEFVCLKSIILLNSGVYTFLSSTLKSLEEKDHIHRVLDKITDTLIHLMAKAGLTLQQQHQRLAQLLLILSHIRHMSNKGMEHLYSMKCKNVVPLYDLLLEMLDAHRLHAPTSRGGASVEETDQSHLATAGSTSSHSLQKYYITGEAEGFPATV

[2] = molecular target: human ERβ (Homo sapiens, UniProt Q92731); test: competitive radiometric binding assay with [3H]estradiol, ERβ; details: for β/α ratio: ratio of RBA ERβ to RBA ERα
Chain of human ERβ (Q92731 whole entry): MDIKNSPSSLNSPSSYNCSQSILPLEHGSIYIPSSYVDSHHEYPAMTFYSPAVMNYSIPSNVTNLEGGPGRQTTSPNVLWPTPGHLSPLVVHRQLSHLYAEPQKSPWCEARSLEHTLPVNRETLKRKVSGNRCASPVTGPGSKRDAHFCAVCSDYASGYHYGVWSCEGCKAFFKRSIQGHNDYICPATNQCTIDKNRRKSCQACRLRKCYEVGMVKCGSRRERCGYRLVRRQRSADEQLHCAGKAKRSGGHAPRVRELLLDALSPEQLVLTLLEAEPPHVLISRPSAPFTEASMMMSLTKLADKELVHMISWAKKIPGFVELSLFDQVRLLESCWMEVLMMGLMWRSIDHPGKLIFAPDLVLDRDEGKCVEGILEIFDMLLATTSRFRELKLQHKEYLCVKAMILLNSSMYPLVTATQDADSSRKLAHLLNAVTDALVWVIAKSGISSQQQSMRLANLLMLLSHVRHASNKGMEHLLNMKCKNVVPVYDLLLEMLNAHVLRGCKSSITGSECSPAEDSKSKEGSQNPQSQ

[3] = estradiol = 100, purified full-length human ERα, 18-24 h at 0 °C
[4] = estradiol = 100, purified full-length human ERβ, 18-24 h at 0 °C

| Relative Binding Affinity (RBA) ERα [1] | Relative Binding Affinity (RBA) ERβ [2] | Compound | Relative Binding Affinity (RBA) ERα [1, 3] | Relative Binding Affinity (RBA) ERβ [2, 4] | β/α ratio [2] | fold lower affinity than parent 8BVE2, ERα ([1]; vs 8β-vinylestradiol) | fold lower affinity than parent 8BVE2, ERβ ([2]; vs 8β-vinylestradiol) |
| --- | --- | --- | --- | --- | --- | --- | --- |
|  |  | N#C[C@H](c1ccc(O)cc1)[C@@H](CCF)c1ccc(O)cc1 [FEDPN] | 0.43 ± 0.09% | 8.74 ± 1.87% | 20 |  |  |
| 0.007 ± 0.001% | 3.22 ± 0.91% | C=Cc1cc(O)cc2nc(-c3ccc(O)c(F)c3)oc12 [ERB-041] |  |  | 460 |  |  |
|  |  | C[C@]12CC[C@@H]3c4ccc(O)cc4CC[C@@]3(CCF)[C@@H]1CC[C@@H]2O [compound 6, 8β-(2-Fluoroethyl)estra-1,3,5(10)-trien-3,17β-diol] | 0.046 ± 0.005% | 8.27 ± 0.98% | 179 | ~10 fold | ~10 fold |
|  |  | C=C[C@@]12CCc3cc(O)ccc3[C@H]1CC[C@@]1(C)[C@H]2CC[C@@H]1O [compound 1, 8β-Vinyl-estra-1,3,5(10)-triene-3,17β-diol] | 0.30% | 105% | 350 |  |  |
